From publication PMC11087525 (Scientific Reports, 2024)

Tests used:
SARS-CoV-2 Delta variant [1] = details: cited from earlier work
SARS-CoV-2 Delta variant [2] = format: cell-based

CC(C)(C)[C@H](NC(=O)C(F)(F)F)C(=O)N1C[C@H]2[C@@H]([C@H]1C(=O)N[C@H](C#N)C[C@@H]1CCNC1=O)C2(C)C [NMR, nirmatrelvir]
EC90 for the Delta variant (SARS-CoV-2 Delta variant [1]; conversion of 0.149 µM): ~ 100 ng/mL
EC90 (SARS-CoV-2 Delta variant [1]; used in PBPK simulation study): 0.149 µM
EC90 for the Delta variant multiplied by a factor of 3 (SARS-CoV-2 Delta variant [2]): 0.3 µg/mL
